Reference: publication PMC11944986, “Parenteral Nanoemulsion for Optimized Delivery of GL-II-73 to the Brain—Comparative In Vitro Blood–Brain Barrier and In Vivo Neuropharmacokinetic Evaluation” (Pharmaceutics, 2025)
Values after ≈ are worked out from the molar mass of the structure shown. “Also recorded” adds a separate entry of the source.

Assays:
[1] = In vivo neuropharmacokinetic study, plasma and brain, intraperitoneal administration; parameters: species or system Sprague Dawley rats; settings: rat; for AUC 0-36: brain; for availability in the brain (AUC0–36) higher after nanoemulsion compared to the solution: intraperitoneal administration
Description: The neuropharmacokinetic study was performed after intraperitoneal administration of the optimized nanoemulsion (NE4) or a 2 mg/mL GL-II-73 solution (solvent consisting of 14% (w/v) propylene glycol and 1% (w/v) polysorbate 80 in ultrapure water). Female Sprague Dawley rats, approximately two months old and weighing 160–200 g, were housed four per cage. The animal room was kept at a temperature of 22 ± 1 °C and a relative humidity of 40–70%. The alternation of light and darkness took place in a 12 h rhythm (light at 6:00 a.m.) with an illumination of 120 lx.
The test animals were divided into two groups of 27 rats each (3 animals per time point). One group received the GL-II-73 solution, the other group the GL-II-73 nanoemulsion, each at a dose of 10 mg/kg. At predefined intervals (5 min, 15 min, 30 min, 1 h, 2 h, 4 h, 8 h, 16 h, and 36 h), the animals were anesthetized with ketamine hydrochloride 90 mg/kg (Ketamidor, Richter Pharma AG, Vienna, Austria) and blood and brain samples were taken. Blood was collected by cardiac puncture with heparinized syringes and centrifuged at 1000× g for 10 min (MiniSpin® plus centrifuge, Eppendorf, Hamburg, Germany) to separate plasma. The isolated brains were weighed and homogenized in 1 mL methanol using an ultrasonic probe. The homogenized brain samples were subsequently centrifuged at 3400× g for 20 min to collect the supernatants. Plasma and the supernatants of the brain homogenates were further purified by solid phase extraction using Oasis HLB cartridges (Waters Corporation, Milford, MA, USA). The cartridges were preconditioned with methanol and then with water prior to application of the sample and internal standard. […] The concentration of GL-II-73 and its metabolite MP-III-022 was quantified in the eluates by liquid chromatography–tandem mass spectrometry (LC-MS/MS).

[2] = test system: in vitro model of the blood–brain barrier based on human induced pluripotent stem cell-derived microvascular endothelial cells, astrocytes, and pericytes; assay: In vitro BBB permeability test (iCell Blood-Brain Barrier Kit, tricellular model); assay type: in vitro ADME; settings: Pe of nanoemulsion vs solution
Description: The iCell® Blood-Brain Barrier Kit (FUJIFILM Cellular Dynamics, Inc., Madison, WI, USA) contained the following: iCell Astrocytes, iCell BMEC (Brain Microvascular Enothelial Cells), iCell Pericytes, iCell Astrocytes & iCell Pericytes Medium, iCell BMEC Maintenance Medium, and iCell Plating Supplement 500×. […]
The iCell® Blood-Brain Barrier Kit (FUJIFILM Cellular Dynamics, Madison, WI, USA) contained astrocytes, pericytes, and brain microvascular endothelial cells. […] For comparison, the contribution of the carrier itself was evaluated using a GL-II-73 solution in ultrapure water.
The transendothelial electrical resistance (TEER) parameter was used to verify the integrity of the barrier. […] The measured TEER values were corrected with TEER values from wells with empty filters and the medium. The final TEER values (Ω × cm^2) were calculated by adjusting the corrected TEER values to the filter surface. […] For this purpose, 100 µL was taken from the basolateral side (containing 1 mL iCell Maintenance Medium) to be analyzed by LC/MS-MS. […]
The Pe parameter (permeability coefficient; cm/min) was calculated as described earlier [19, 20] and used to evaluate the rate and the effectiveness of GL-II-73 transport through the BBB. […]
The Pe value was determined by dividing the Pse values by the surface area of the membrane of the insert (cm^2).

[3] = Solubility of GL-II-73 in various media, shake flask method; assay type: physicochemical; settings: thermodynamic from solid
Description: The solubility of GL-II-73 was investigated in various media using the shake flask method. In brief, GL-II-73 was added in excess and mixed overnight on the vortex, followed by centrifugation to remove any excess of undissolved drug. The supernatants were then diluted in methanol and GL-II-73 content was determined by the LC/MS-MS method.
A liquid chromatographic system, the Accela 1000 (Thermo Fisher Scientific, San Jose, CA, USA), which includes a quaternary pump and an autosampler, was used for chromatographic analyses. All runs were performed with an XTERRA® MS C18 column (150 mm × 2.1 mm, 3.5 µm; Waters, Dublin, Ireland) maintained at 25 °C. Samples were stored in the autosampler temperature-controlled compartment at 8 °C. Isocratic elution was performed with a mixture of acetonitrile and 0.1% aqueous formic acid (60:40, v/v) at a flow rate of 300 µL/min. The total analysis time was 4.5 min. Mass spectrometric analyses were performed using a TSQ Quantum Access MAX (Thermo Fisher Scientific, Waltham, MA, USA) triple-quadrupole spectrometer equipped with a heated electrospray ionization (HESI) source. Operating conditions of the MS were optimized as follows: the spray voltage was set to 4000 V, with a skimmer offset of 0 V; the evaporator and capillary temperatures were set to 350 °C and 300 °C, respectively; nitrogen was used as both the nebulizer and auxiliary gas, with flow rates of 50 and 10 arbitrary units, respectively; and the collision gas pressure in q2 was maintained at 1.4 mTorr of argon. Data acquisition was performed with Selected Reaction Monitoring (SRM) in positive scan mode. The [M + H]^+ transitions m/z of SRM were 387.2 → 342.2 (CE 21 V), 373.1 → 314.0 (CE 29 V), and 347.0 → 302.0 (CE 28 V) for GL-II-73, MP-III-022, and SHI-I-048A (as internal standard), respectively. The Thermo Xcalibur 2.1 software was used for data acquisition.

SMILES | AUC 0-36 ([1]; metabolite MP-III-022 after 10 mg/kg GL-II-73 nanoemulsion NE4 i.p.) [ng·h/g] | AUC 0-36 ([1]; metabolite MP-III-022 after 10 mg/kg GL-II-73 solution i.p.) [ng·h/g] | availability in the brain (AUC0–36) higher after nanoemulsion compared to the solution [1] [%] | Permeability of GL-II-73 through the BBB, nanoemulsion relative to solution [2] | solubility ([3]; MCT, oil or lipid) [mg/mL] | solubility ([3]; aqueous buffer, Phosphate buffer (pH 7.4)) [mg/mL] | solubility ([3]; benzyl alcohol, organic solvent or mixture) [mg/mL] | solubility ([3]; castor oil, oil or lipid) [mg/mL] | solubility ([3]; fish oil, oil or lipid) [mg/mL] | solubility ([3]; isopropanol, organic solvent or mixture) [mg/mL] | solubility ([3]; methanol, organic solvent or mixture) [mg/mL] | solubility ([3]; simulated gastric fluid, 0.1 M HCl (pH 1.2)) [mg/mL] | solubility ([3]; soybean oil, oil or lipid) [mg/mL] | solubility ([3]; Water (pH 5.2)) [mg/mL] | sum of brain AUC0-36 values for the parent molecule and its metabolite, nanoformulation compared to the solution ([1]; systemic administration)
C#Cc1ccc2c(c1)C(c1ccccc1F)=N[C@H](C)c1c(C(=O)NC)ncn1-2 [MP-III-022] | 167.36 ± 70.56 | 103.75 ± 2.05 | 61 |  |  |  |  |  |  |  |  |  |  |  | 
C#Cc1ccc2c(c1)C(c1ccccc1F)=N[C@H](C)c1c(C(=O)N(C)C)ncn1-2 [GL-II-73] |  |  | 24 | twice as high; also recorded: more than twofold higher | 4.49 ± 0.148 (≈ 11.6 mM) | 0.951 ± 0.0414 (≈ 2.46 mM) | > 534 | 2.82 ± 0.184 (≈ 7.3 mM) | 2.4 ± 0.331 (≈ 6.2 mM) | 131 (≈ 339 mM) | > 1470 | 5.37 ± 0.195 (≈ 13.9 mM) | 3.06 ± 0.137 (≈ 7.91 mM) | 1 ± 0.0399 (≈ 2.59 mM) | one-third higher
